Patent US20110064694A1, “ANTI-HEPATITIS C ACTIVITY OF MESO-TETRAKIS-PORPHYRIN ANALOGUES” (YALE UNIVERSITY, priority 2009, published 2011)
Read-outs that look alike come from different tables or passages of the source.

How the values were obtained:
HBV = test: Anti-HBV activity in 2.2.15 cells by Southern DNA hybridization; type: cell-based; details: read-out: Antiviral Activity EC50 HBV
Experimental: Determination of antiviral activities. Ff-luciferase reporter activity was used to monitor the replication of HCV replicons in Huhluc/neo-ET cells free from G418. Replicon cells were seeded at the density of 5×10^3 cells per well in 96-well plates. The following day, replicon cells were incubated in duplicates with DMSO or serially diluted tetraphenylporphyrin (TPP) analogues at 37″C. 72 hrs after co-incubation, cells were lysed with ice-cold passive lysis reagent after PBS wash, and the luciferase activity was measured with the luciferase assay kit (Promega) and Tecan FARCyte luminometer (GE Healthcare) following the manufacturers' descriptions. The relative light units (RLU) were adjusted as percentage readings of the compound-free controls and the 50% effective concentration (EC50) was determined from dose-effect curve by nonlinear regression analysis using Origin 6.1 (OriginLab Software). TPP analogues were also screened in vitro against HIV-I IIIB and HBV as previously described (26,41). Briefly 1×10^3 MT-2 cells per well were exposed in triplets to 0.1TC1D50/cell (50% of the tissue culture infectious dose) of HIV-1 IIIB and cultured in the presence of compounds. The EC50 values were estimated by MTT-based colorimetric quantitation of viral CPE after 5 days. Anti-HBV activities were evaluated in 2.2.15 cells by means of Southern DNA hybridization.

[1] = test system: HCV genotype 1b (Con1) replicon cells Huh-luc/neo-ET
Experimental: Reversibility of the action of compound 6 against genotype 1b HCV replicon. Huh-luc/neo-ET cells were seeded at a density of 2×10^5 cells per well in a 6-well plate, and were incubated for 12 days with DMSO control or up to 1 μM of compound 6 in the absence of G418. Cells were split every three days when media and compounds were replenished, and samples were collected for RNA quantification. compound 6 was removed on Day 12 when cells were split and cultured in the presence of 250 μg/ml of G418. Replicon cells were continuously monitored for another 12 days, during which cells were split and sampled whenever reaching confluence. Cell viability was measured by CellTiter-Glo luminescent cell viability assay following manufacturer's procedures (Promega), and the HCV RNA was quantitated by qRT-PCR and normalized as described above.
The goal of anti-HCV treatment is to completely eliminate the virus from infected cells. In order to assess the reversibility of the antiviral action and the possibility of replicon clearance, we incubated Huhluc/neo-ET cells with increasing concentrations of compound 6 for […] free from G418 (FIG. 4). On Day 12 compound 6 was removed and 250 μgml G418 was reintroduced while the replicon RNA level and cell growth were monitored for another 12 days.

[2] = test system: HCV genotype 2a (JFH-1) replicon; test: HCV RNA quantification by qRT-PCR in YSGR-JFH cells; type: cell-based, Hepatitis C virus
Experimental: Cells. HCV genotype 1b (Con 1 isolate) subgenomic replicon cell line with luciferase reporter (Huh-luc/neo-ET) was kindly provided by Ralf Bartenschlager from the University of Heidelberg (37). Huh-luc/neo-ET cells were cultured in Dulbecco's modified Eagle medium (DMEM , supplemented with 10% fetal bovine serum (FBS), 1 mM nonessential amino acids, and 250 μg/ml of G418 (Invitrogen). Genotype 2a (JFH-I isolate) subgenomic replicon cells YSGR-JFH were cultured in DMEM containing 10 To fetal calf serum, 1 mM nonessential amino acids and 400 μg/ml G418 (31). An additional genotype 1b (Conl) replicon cell line (4291BBix) was cultured in similar media but with 3 μg/ml blasticidin (22).
(§1) Activity of compound 6 against genotype 2a (JFH-I) replicons. In parallel to Huh-luc/neo-ET cells, 1×10^5 YSGR-JFH cells per well were incubated with DMSO control, compound 6, or recombinant human IFNα-2a (Pestka Biomedical Laboratories) in 6-well plates. Cells were harvested after 72 hrs of co-incubation and HCV RNAs were quantitated by qRT-PCR and normalized as described above.

[3] = test system: mitochondrial DNA content of CEM cells; test: Mitochondrial DNA toxicity, slot blot of CEM cell lysates; type: cell-based
Experimental: Quantitation of mitochondrial DNA content was performed as previously published (18). Briefly, CEM cell lysates were spotted onto Hybond paper using the Miliford II slot blot apparatus (Schleicher & Schuell). MTDNA was detected with mtDNA-specific probe and then reprobed with Alu probe for internal control. The autoradiographic bands were quantified on scanning densitometer (Molecular Dynamics).

[4] = test system: HCV genotype 1b (Con1) replicon RNA; test: HCV RNA quantification by qRT-PCR in Huh-luc/neo-ET cells; type: cell-based, Hepatitis C virus; details: for EC50: qRT-PCR, estimated
Experimental: (§2) Quantification of HCV RNA and NS5A protein. Huhluc/neo-ET cells were seeded at the density of 1×10^5 cells per well in 6-well plate and treated with either DMSO control or up to 250 nM of compound 6. Cells were harvested after 24, 48, or 72 hrs of incubation and subjected to luciferase activity assay, RNA quantification and immunoblotting. Results were averaged from three independent repeats. Luciferase activity assay was done in triplets per experiment as aforementioned and RLU reading was normalized against the total protein level per sample determined from Bradford assay. Total RNA was isolated using RNeasy Mini Kit (QIAGEN) and the RNA concentrations were measured by spectrophotometry (GE Healthcare) followed by dilution into 50 ng/μL. Replicon RNA was quantitated in triplicates by amplifying the HCV 5′UTR using one-step real-time reverse transcriptase polymerase chain reactions (qRT-PCR). Each 20 μL replicate contained 100 ng of total RNA, 100 nM probe (6FAM-5′-[…]-3′-MGBNFQ, Applied Biosystems) and 200 nM forward and reverse primers (5′-[…]-3′, and 5′-[…]-3′ respectively, Yale University W.M. Keck Facility) (21), together with iScript reverse transcriptase and reaction mix for one-step RT-PCR (Bio-Rad Laboratories). Reactions were run in the iCycler iQ RealTime thermocycler detection system (Bio-Rad Laboratories) as follows: 10 min at 50° C., 5 min at 95° C., followed by 42 cycles at 95° C. for 15 sec and 60° C. for […]. Results were normalized against the β-actin mRNA levels in each sample (20).
as §1

cytochrome c = cytochrome c (Equus caballus, UniProt P00004); details: read-out: Kd, binding to cyt c; cited from earlier work
cytochrome c, sequence (P00004 2-105 limits assumed): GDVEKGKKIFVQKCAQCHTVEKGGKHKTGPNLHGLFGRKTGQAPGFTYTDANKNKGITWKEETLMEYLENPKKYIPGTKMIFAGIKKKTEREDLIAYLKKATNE

[5] = test system: HCV genotype 1b (Con1) replicon
Experimental: as §2

Compound: O=C(O)c1cc(C(=O)O)cc(-c2ccc(-c3c4nc(c(-c5ccc(-c6cc(C(=O)O)cc(C(=O)O)c6)cc5)c5ccc([nH]5)c(-c5ccc(-c6cc(C(=O)O)cc(C(=O)O)c6)cc5)c5nc(c(-c6ccc(-c7cc(C(=O)O)cc(C(=O)O)c7)cc6)c6ccc3[nH]6)C=C5)C=C4)cc2)c1 [Compound 6, Meso-teftakis-(3,5-dicarboxy-4,4′-biphenyl)porphyrin]
- EC50 (HBV): > 20000 nM
- cells surviving under G418 ([1]; 50 nM for 12 days, 6 days after the removal of inhibitor): 8.5%
- replicon-positive cells rebounded ([1]; 50 nM for 12 days, 12 days after removal of inhibitor): 13.1%
- cells surviving under G418 ([1]; 100 nM for 12 days, end of the experiment): 0.007%
- cell viability after G418 reintroduction ([1]; 300 nM and 1 μM for 12 days, 9 days after coincubation with G418): no longer viable
- reduction in the HCV RNA levels ([1]; 300 nM and above, after 12 days of exposure): approximately 4.5 1o916
- cells surviving under G418 ([1]; 300 nM for 9 days, 15-day rebound period with G418): 0.4%
- replicon clearance ([1]; 1 μM for 9 days, 15-day rebound period with G418): achieved complete “cure”
- toxicity in cells during the 12-day treatment ([1]; up to 1 μM, 12 days): did not cause significant toxicity
- EC50 in YSGR-JFH (genotype 2a) relative to EC50 in Huh-luc/neo-ET (genotype 1b) ([2]; 72 hrs): over 57 fold
- less effective against genotype 2a (JFH-1) than against genotype 1b (Conl) replicons ([2]; anti-HCV EC50): 57 times
- EC50 ([2]; genotype 2a, 72 hrs, HCV RNA by qRT-PCR, read-out: antiviral EC50 against YSGR-JFH replicon cells): 1380 ± 148 nM
- effect on amount of mitochondrial DNAs [3]: did not alter the amount of mitochondrial DNAs
- IC50 ([3]; CEM cells, read-out: Mitochondrial DNA Toxicity IC50 CEM): > 50000 nM
- EC50 ([4]; 24 hrs, read-out: 24-hr EC50, HCV RNA level): 67.8 nM
- EC50 ([4]; 48 hrs, read-out: 48-hr EC50, HCV RNA level): 36.2 nM
- improvement of 72-hr EC50 compared with 24-hr incubation, HCV RNA ([4]; 72 hr vs 24 hr): over 2 fold
- Kd (cytochrome c): 1500 ± 170 nM
- improvement of 72-hr EC50 compared with 24-hrs incubation, luciferase ([5]; 72 hr vs 24 hr): over 3 fold
- EC50 ([5]; read-out: 24-hr EC50, replicon luciferase activity, 24 hrs incubation): 57.8 nM
- EC50 ([5]; read-out: 48-hr EC50, replicon luciferase activity, 48 hrs incubation): 19.2 nM
- EC50 ([5]; read-out: 72-hr EC50, replicon luciferase activity, 72 hrs incubation): 17.6 nM
